In paper PMC11672137, “High-Affinity Lectin Ligands Enable the Detection of Pathogenic Pseudomonas aeruginosa Biofilms: Implications for Diagnostics and Therapy” (JACS Au, 2024):

Legend:
[1] = system: P. aeruginosa PAO1 biofilms; assay: In vitro biofilm staining under flow conditions, injection method; format: cell-based, Pseudomonas aeruginosa; conditions: 17 μM in channel, 10 min incubation, then flow 3 mL/h for 10-20 min
Description: (§1) P. aeruginosa biofilms were grown under flow conditions and observed by fluorescence microscopy in analogy to Ghanbari et al.[66] To this end, P. aeruginosa PAO1 expressing the red fluorescent protein mCherry[56] was diluted to an OD600 nm of 0.1 and injected into the microfluidics device. After a 30-min settling period, biofilms were grown under a constant laminar flow rate of 3 mL/h per channel. Following 48 h of incubation at 30 °C, dense and mature P. aeruginosa PAO1 biofilms were observed, which were then further used for analysis of the imaging probes.
Two different staining methods were evaluated for the imaging of P. aeruginosa PAO1 biofilms: (I) direct injection of the imaging compounds into the flow system or (II) compound supplementation into the medium and gradual accumulation at the biofilm (Figure S18). […] The flow of compounds 17 and 24 and their arrival in the flow cells were monitored using a fluorescence microscope attached to the flow system. […]
Figure 4 Staining of P. aeruginosa PAO1 biofilms under flow following the injection method. […] Pictures of the same aggregates were recorded prior to compound injection (t−10), during a 10 min incubation period without flow (t0) and during the wash period (constant flow, 3 mL/h) at different time points t5, t10, t15, and t20 (5, 10, 15, and 20 min) using a fluorescence microscope. […]

[2] = system: P. aeruginosa PAO1 biofilms; assay: In vitro biofilm staining under flow conditions, compound supplementation to the medium; format: cell-based, Pseudomonas aeruginosa; conditions: 3 mL/h
Description: as §1
To circumvent these technical drawbacks, the addition of compounds to the medium reservoir and retention at the biofilm was pursued. Imaging compounds were added to the medium reservoirs at a concentration of 500 nM, which were continuously pumped (3 mL/h) through the flow cell for 4 h. Compound accumulation at mature P. aeruginosa biofilms was immediately analyzed using fluorescence microscopy. Afterwards, the medium was exchanged, and the biofilms were washed for 30 min (3 mL/h, no compound) to monitor the retention (Figure 5). Furthermore, an analysis using CLSM was also performed after 4 h of accumulation without washing (Figures 5 and S22).
Figure 5 Staining of P. aeruginosa PAO1 biofilms grown under flow conditions with compound supplementation to the medium. Biofilm staining with (A) fluorescein divalent probe 17, (B) fluorescein control 24, (C) BODIPY divalent probe 19, and (D) BDP FL azide control 18 was monitored after 4 h of accumulation under constant flow (3 mL/h) of LB media containing 500 nM of respective compound. Retention of imaging compounds is shown after a subsequent wash period for 30 min with medium (3 mL/h, no compound). Images were recorded by using a fluorescence microscope. CLSM was performed for (E) BODIPY divalent probe 19 and the control (F) BDP FL azide 18 after 4 h of accumulation. Green signal originates from fluorescently labeled probes 17 and 19 and controls 24 and 18. P. aeruginosa constitutively expressing mCherry from pMP7605^56 is shown in red. Z-Stack size, 2 μm. Scale bar = 50 μm.
In vitro biofilm staining under flow conditions
The flow cell experiment was set up in analogy to Ghanbari et al. and in this study, optimized and established for biofilm staining.25 In principle, the experiment is based on an inlet connected to a medium source, a peristaltic pump providing constant medium flow, a flow chamber enabling analysis of bacterial growth and an outlet (waste container/bottle).
The medium used in the flow system was LB diluted by factor 5 containing 60 µg/mL
Gm. Silicone tubings 1.6 mm (ibidi, Germany) were used transporting medium from inlet to the peristaltic pump (Watson-Marlow Fluid Technology Solutions). Stopper hoses (CarlRoth) placed in peristaltic pump were coupled to silicone tubes via connectors (ibidi, Germany).
Stopper hoses are connected to bubble traps (obtained by Claus Sternberg, DTU Copenhagen) via 0.8 mm silicone tubing (ibidi, Germany). Bubble traps were used to remove air from the medium flow and to avoid biofilm disruption. Downstream from the bubble traps, the flow cell (μ-Slide VI 0.4 ibiTreat, ibidi, Germany) was placed into the system and connected to 1.6 mm silicone tubes (ibidi, Germany). The outlet is leading the medium from flow chamber to a waste […]
In order to inoculate the flow cell with P. aeruginosa PAO1 mCherry (pMP7605)23 the silicone tubes upstream and downstream of the flow chamber were pinched off by using commercial plastic clamps. The medium flow was stopped and the flow cell was inoculated by injecting 300 µL of the bacterial suspension (OD600nm of 0.1) into the silicone tubing upstream of the flow chamber. For this, a cannula (0.30 x 12 mm, Sterican) was used. The injection point was sealed with silicone glue. After bacterial settling time of 30 min, the flow was started again and clamps were removed. Growth temperature was regulated by using a heat system (ibidi, […]
Germany). […]

O=C(CCc1ccc(O[C@@H]2O[C@H](CO)[C@H](O)[C@H](O)[C@H]2O)cc1)Nc1ccc(CN(CCc2cn(CCOCCOCCOCCNC(=S)Nc3ccc4c(c3)C(=O)OC43c4ccc(O)cc4Oc4cc(O)ccc43)nn2)Cc2ccc(NC(=O)CCc3ccc(O[C@@H]4O[C@H](CO)[C@H](O)[C@H](O)[C@H]4O)cc3)cc2)cc1 [compound 17]
Retention of fluorescence at biofilm during wash [1]: retained at the P. aeruginosa biofilm aggregates | Biofilm staining after accumulation ([2]; 500 nM in medium, 4 h, fluorescence microscope): successfully stained PAO1 biofilms | Retention at biofilm after wash ([2]; after 4 h accumulation at 500 nM, 30 min wash, no compound): still visible at a lower intensity
